The values below come from patent US9447085B2, “Iminothiadiazine dioxides containing a thioamide, amidine, or amide oxime group as BACE inhibitors, compositions, and their use” (Merck Sharp & Dohme Corp., priority 2012, dated 2016).

As a reminder, the Ki is the equilibrium dissociation constant of an inhibitor or competing ligand from its target. By inhibition is commonly meant the relative decrease from the control value, in per cent.

For test [1], the target named is soluble human BACE1 catalytic domain (Homo sapiens (Human), UniProt P56817). Kind of test: BACE1 HTRF FRET Assay. In kind it is biochemical. The conditions noted are these: for Ki: Ki calculated from IC50 using the Cheng-Prusoff equation. The source says:
A homogeneous time-resolved FRET assay can be used to determine IC50 values for inhibitors of the soluble human BACE1 catalytic domain. This assay monitors the increase of 620 nm fluorescence that resulted from BACE1 cleavage of an APPswedish APP^swe mutant peptide FRET substrate (QSY7-[…]-Europium-amide). This substrate contains an N-terminal QSY7 moiety that serves as a quencher of the C-terminal Europium fluorophore (620 nm Em). In the absence of enzyme activity, 620 nm fluorescence is low in the assay and increased linearly over 3 hours in the presence of uninhibited BACE1 enzyme Inhibition of BACE1 cleavage of the QSY7-APP^swe-Eu substrate by inhibitors is manifested as a suppression of 620 nm fluorescence.
Reactions are initiated by addition of 10 μl of 600 nM QSY7-APP^swe-Eu substrate (200 nM final) to give a final reaction volume of 30 μl in a 384 well Nunc HTRF plate. The reactions are incubated at 30° C. for 1.5 hours. The 620 nm fluorescence is then read on a Rubystar HTRF plate reader (BMG Labtechnologies) using a 50 millisecond delay followed by a 400 millisecond acquisition time window Inhibitor IC50 values are derived from non-linear regression analysis of concentration response curves.

Test [2] has as its target purified human autoBACE-2 (Homo sapiens (Human), UniProt Q9Y5Z0). As to the kind of experiment: BACE-2 Assay (BACE-HTRF assay). The format is biochemical. The conditions noted are these: Ki calculated from IC50 using the Cheng-Prusoff equation; read-out: BACE2 Ki. How it is done:
Inhibitor IC50s at purified human autoBACE-2 are determined in a time-resolved endpoint proteolysis assay that measures hydrolysis of the QSY7-[…]-Eu-amide FRET peptide substrate (BACE-HTRF assay). […] DMSO is present at 5% final concentration in the assay. Following laser excitation of sample wells at 320 nm, the fluorescence signal at 620 nm is collected for 400 ms following a 50 μs delay on a RUBYstar HTRF plate reader (BMG Labtechnologies). Raw RFU data is normalized to maximum (1.0 nM BACE/DMSO) and minimum (no enzyme/DMSO) RFU values. […] The Ki values are calculated from the IC50 using the Cheng-Prusoff equation.

soluble human BACE1 catalytic domain, sequence (P56817 75-416): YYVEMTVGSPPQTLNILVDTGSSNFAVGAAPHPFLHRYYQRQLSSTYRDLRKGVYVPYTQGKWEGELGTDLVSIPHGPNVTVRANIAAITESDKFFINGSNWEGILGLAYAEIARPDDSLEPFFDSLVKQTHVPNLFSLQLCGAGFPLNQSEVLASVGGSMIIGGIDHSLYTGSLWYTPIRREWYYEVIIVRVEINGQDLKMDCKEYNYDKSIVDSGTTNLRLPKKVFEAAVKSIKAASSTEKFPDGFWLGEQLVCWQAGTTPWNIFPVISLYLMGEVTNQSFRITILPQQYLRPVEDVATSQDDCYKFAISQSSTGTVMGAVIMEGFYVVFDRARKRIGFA
purified human autoBACE-2, sequence (Q9Y5Z0 63-473): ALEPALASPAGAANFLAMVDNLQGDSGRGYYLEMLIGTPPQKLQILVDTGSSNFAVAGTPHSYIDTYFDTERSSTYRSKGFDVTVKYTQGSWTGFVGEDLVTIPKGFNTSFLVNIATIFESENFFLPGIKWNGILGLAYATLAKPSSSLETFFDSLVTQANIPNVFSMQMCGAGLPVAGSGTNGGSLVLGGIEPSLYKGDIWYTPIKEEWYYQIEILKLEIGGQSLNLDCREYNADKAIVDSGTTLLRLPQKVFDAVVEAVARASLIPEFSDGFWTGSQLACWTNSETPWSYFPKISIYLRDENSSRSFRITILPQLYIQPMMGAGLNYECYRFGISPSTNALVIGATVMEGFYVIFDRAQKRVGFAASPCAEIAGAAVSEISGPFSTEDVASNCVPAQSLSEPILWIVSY

Consider `COc1cnc(C(=S)Nc2cc(F)c(F)c([C@]3(C)CS(=O)(=O)N(C)C(=N)N3)c2)cn1` [Example 14], for which the inhibitory constant (Ki) in test [1] was 8 nM; in test [2] it was 18 nM.
The matching figures for `CN1C(=N)N[C@](C)(c2cc(NC(=S)c3ccc(Cl)cn3)ccc2F)CS1(=O)=O` [Example 1]: 9.1 nM and 1 nM.
The corresponding values for `CN1C(=N)N[C@](C)(c2cc(NC(=S)c3ccc(C(F)(F)F)cn3)cc(F)c2F)CS1(=O)=O` [Example 13] are 30 nM and 21 nM.
The matching figures for `CN1C(=N)N[C@](C)(c2cc(NC(=S)c3ccc(F)cn3)ccc2F)CS1(=O)=O` [Example 4b]: 25 nM and 2 nM.
Take `CO/N=C(/Nc1ccc(F)c([C@]2(C)CS(=O)(=O)N(C)C(=N)N2)c1)c1ccc(Cl)cn1` [Example 6]: the inhibition constant (Ki) was 340 nM in test [1] and 58 nM in test [2].
As for `CO/N=C(/Nc1ccc(F)c([C@]2(C)CS(=O)(=O)N(C)C(=N)N2)c1)c1ccc(OC)cn1` [Example 5], in test [1] (@ 10 uM), 10 µM produced 47% inhibition. Also, in test [2], the Ki was 1450 nM.
For the compound `CN1C(=N)N[C@](C)(c2cc(NC(=N)c3ccc(Br)cn3)ccc2F)CS1(=O)=O` [Example 7], the Ki is 371 nM in test [1] and 148 nM in test [2].
The corresponding values for `COc1ccc(C(=S)Nc2cc(F)c(F)c([C@]3(C)CS(=O)(=O)N(C)C(=N)N3)c2)nc1` [Example 9] are 57 nM and 15 nM.
The matching figures for `CN1C(=N)N[C@](C)(c2cc(NC(=S)C(F)F)cc(F)c2F)CS1(=O)=O` [Example 11]: 95 nM and 28 nM.
The matching figures for `COc1cnc(C(=S)Nc2ccc(F)c([C@]3(C)CS(=O)(=O)N(C)C(=N)N3)c2)cn1` [Example 4c]: 3 nM and 4 nM.
As to `COc1ccc(C(=S)Nc2ccc(F)c([C@]3(C)CS(=O)(=O)N(C)C(=N)N3)c2)nc1` [Example 2], the figures for the Ki in test [1] and in test [2] were 57 nM and 8 nM, respectively.
The corresponding values for `COCC(=S)Nc1cc(F)c(F)c([C@]2(C)CS(=O)(=O)N(C)C(=N)N2)c1` [Example 10] are 188 nM and 6 nM.
On to `CN1C(=N)N[C@](C)(c2cc(NC(=S)c3ccc(Cl)cn3)cc(F)c2F)CS1(=O)=O` [Example 8], for which the Ki is 9 nM in test [1] and 2 nM in test [2].
The corresponding values for `CN1C(=N)N[C@](C)(c2cc(NC(=S)c3ccc(F)cn3)cc(F)c2F)CS1(=O)=O` [Example 12] are 17 nM and 3 nM.
Take `CN1C(=N)N[C@](C)(c2cc(NC(=S)C(F)F)ccc2F)CS1(=O)=O` [Example 4]: the inhibitory constant (Ki) in test [1] is 83 nM; in test [2], 7 nM.
The matching figures for `COCC(=S)Nc1ccc(F)c([C@]2(C)CS(=O)(=O)N(C)C(=N)N2)c1` [Example 3]: 152 nM and 2 nM.
